Data from article PMC8396575, ““Molecular Masks” for ACE2 to Effectively and Safely Block SARS-CoV-2 Virus Entry” (International Journal of Molecular Sciences, 2021).
Bridge positions count the residues as written; N and C are the ends. Square brackets hold non-standard residues; d marks the D form. Peptide text beside a SMILES is read from it. I, II: the chains in the order shown. N(4-MeOBn)Gly = COc1ccc(CNCC(=O)O)cc1; N((CH2)3OiPr)Gly = CC(C)OCCCNCC(=O)O; Nrpe = C[C@@H](NCC(=O)O)c1ccccc1; NAllylGly = C=CCNCC(=O)O; Nleu = CC(C)CNCC(=O)O; Nme = COCCNCC(=O)O

Tests used:
[1] = system: ACE2 activity in Caco-2 cells; experiment: ACE2 enzyme activity in Caco-2 cells; format: cell-based, human; settings: 40 µg cell lysate, cOmplete protease inhibitor 40 µL/mL, 10 µM captopril; fluorescence; n = 3/group
Description: ACE2 is an enzyme which lowers blood pressure by catalyzing the hydrolysis of angiotensin II [49]. […] To determine if ACE2P1D1 and ACE2P2D1 interfere with the normal functions of ACE2, we examined the effects of the peptoids on ACE2 enzyme activity. ACE2 enzyme activity was measured by fluorescence generated from the cleavage of the substrate Mca-YVADAPK(Dnp) by ACE2. […] We then examined the effects of ACE2P1D1 and ACE2P2D1 on ACE2 activity in cultured cells. For measuring ACE2 activity in cells, cell homogenates were used. To prevent hydrolysis of the substrate by a range of nonmetalloprotease enzymes from the cells, cOmplete™ Protease Inhibitor Cocktail (Roche/Sigma—40 µL/mL) was added to the cell homogenates. To eliminate the effects of ACE on the substrate, ACE inhibitor captopril (10 µM) was added to the assay.
ACE2 enzyme activity was determined using recombinant ACE2 protein (R&D system Inc., Cat# 933-ZN-010, Minneapolis, MN, USA) alone or in the presence of ACE2P1D1 and ACE2P2D1 in different concentrations (0.1 µM, 1 µM, and 10 µM), and Mc[…] (Dnp)-OH, Fluorogenic Peptide Substrate VI from R&D System, Inc. (Cat# ES007, Minneapolis, MN, USA). […] ACE2 enzyme activity was measured every 20 min by fluorescence plate reader (BioTek Cytation 5 cell Imaging Multi-Mode Reader, Winooski, VT, USA) with excitation at 320 nm and emission at 405 nm.

MCF-7 cells = experiment: WST-1 cell viability assay, MCF-7; format: cell-based, human; settings: WST-1, 48 h, concentrations tested up to 20 µM; n = 3–5/group
Source text: (§1) We assessed whether ACE2P1D1 and ACE2P2D1 are toxic to the cells. We seeded and treated increasing concentrations of ACE2P1D1 and ACE2P2D1 on NCI-H1299, Caco-2, and MCF-7 cells. The standard WST-1 assay was used to measure the cell viability. As shown in Figure 5c–e, treatment with both compounds had no effects on cell viability in NCI-H1299, MCF-7, and Caco-2 cells.

[2] = system: total ACE2 protein in Caco-2 cells; experiment: Western blot, total ACE2, Caco-2; format: cell-based, human; settings: various concentrations, 48 h
Description: Cells were lysed in RIPA buffer (1% NP-40, 0.5% sodium deoxycholate, 0.1% SDS in PBS). Complete protease inhibitor cocktail (Roche, St. Louis, MO, USA) was added to lysis buffer before use. Protein concentration was determined by Bio-Rad DC protein assay (Bio-Rad, Hercules, CA, USA). Protein samples were subjected to SDS-PAGE and transferred to nitrocellulose membrane. The membrane was blocked in 5% non-fat milk in PBST overnight and incubated with primary antibody and subsequently with appropriate horse radish peroxidase-conjugated secondary antibody. Signals of targeted proteins were detected by the Immun-Star HRP peroxide Luminol/Enhancer (Bio-Rad, Hercules, CA, USA) and recorded on ChemiDoc Touch Imaging System (Bio-Rad, Hercules, CA, USA). Anti-hACE2 (human ACE2 receptor) antibody was purchased from R&D system, Inc. (Cat# AF933, Minneapolis, MN, USA). Full western blot data are given in Supplementary Material (Figures S14–S16).

[3] = system: ACE2 cell surface expression in Caco-2 cells; experiment: Flow cytometry, ACE2 cell surface expression, Caco-2; format: cell-based, human; settings: 10 µM, 48 h
Description: To evaluate the impact of compounds to ACE2 upon binding in cell lines, MCF-7, NCI-H1299, and Caco-2 cell cultures reaching 70% confluences were incubated with 10 μM ACE2P1D1 and ACE2P2D1 for 48 h and then harvested using trypsin. Briefly, cells were centrifuged and washed with FACS buffer and then fixed by methanol on ice. Cells were suspended with a primary antibody-staining mixture using 0.5 μg (Human/Mouse/Rat/Hamster ACE-2 Antibody, R&D Systems, Inc., Cat# AF933, Minneapolis, MN, USA) per sample. Samples were incubated at room temperature for 1 h followed by washing and secondary antibody (mouse anti-goat IgG-FITC, Santa Cruz, Cat# sc-2356, Dallas, TX, USA) staining. Samples were incubated for another hour and washed before being analyzed using Accuri™ C6 (BD Biosciences, Franklin Lakes, NJ, USA). Data analysis was conducted by FlowJo™ v10 software (v10.5.2, FlowJo. LLC, Ashland, OR, USA).

[4] = target: T1, recombinant human angiotensin-converting enzyme 2 (ACE2) (His-tag) (Homo sapiens, UniProt Q9BYF1); experiment: ELISA-like quantitative ACE2-peptoid binding assay
T1 construct: purchased RayBiotech 230-30165-100
T1 sequence (Q9BYF1 18-805): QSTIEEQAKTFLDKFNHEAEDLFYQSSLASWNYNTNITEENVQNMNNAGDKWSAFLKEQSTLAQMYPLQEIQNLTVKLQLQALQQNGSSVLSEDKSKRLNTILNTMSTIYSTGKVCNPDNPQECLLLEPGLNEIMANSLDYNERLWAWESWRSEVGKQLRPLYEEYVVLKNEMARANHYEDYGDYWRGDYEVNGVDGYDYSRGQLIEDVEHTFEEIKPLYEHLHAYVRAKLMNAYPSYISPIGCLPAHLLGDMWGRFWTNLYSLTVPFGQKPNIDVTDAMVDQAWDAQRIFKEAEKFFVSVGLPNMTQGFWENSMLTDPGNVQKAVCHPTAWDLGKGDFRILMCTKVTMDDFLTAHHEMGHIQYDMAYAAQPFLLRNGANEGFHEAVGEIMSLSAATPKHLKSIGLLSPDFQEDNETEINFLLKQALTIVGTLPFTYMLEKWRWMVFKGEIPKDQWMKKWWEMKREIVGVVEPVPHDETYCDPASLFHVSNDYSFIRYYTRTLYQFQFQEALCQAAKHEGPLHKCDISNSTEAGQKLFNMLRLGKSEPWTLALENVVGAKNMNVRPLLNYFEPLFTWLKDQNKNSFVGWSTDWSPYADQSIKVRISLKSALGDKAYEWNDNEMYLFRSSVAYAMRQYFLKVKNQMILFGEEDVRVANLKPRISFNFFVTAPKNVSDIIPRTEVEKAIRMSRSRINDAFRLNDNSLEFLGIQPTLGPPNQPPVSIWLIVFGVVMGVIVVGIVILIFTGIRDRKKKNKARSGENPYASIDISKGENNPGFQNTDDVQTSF
Description: We first validated the OBTC screening results by resynthesizing ACE2P1 and ACE2P2 on tentagel beads and incubated them with red cells (ACE2 positive) and green cells (ACE2 negative) separately as well as 1:1 mixture of these cells. […] Next, we incubated recombinant ACE2 protein with the ACE2P1 or ACE2P2 conjugated tentagel beads and performed in vitro pull-down assay. […] To confirm a direct interaction between the peptoids and ACE2, we performed a thermal shift assay using recombinant ACE2 protein. The Applied Biosystems™ Protein Thermal Shift™ assay measures protein thermal stability using a fluorescent protein-binding dye. […] The protein is mixed with the dye and heated; as it unfolds or melts, hydrophobic parts of the protein are exposed and bind to the dye, resulting in fluorescence emission detected by the qPCR system. Binding of a ligand to the protein changes the stability of the protein, resulting in a change in fluorescence intensity. […] Finally, we performed a previously published ELISA-like quantitative binding assay to quantify the peptoid-ACE2 binding event. The recombinant His-tagged ACE2 protein was attached to the Nickel-coated 96-well plate. […] After washing, the remaining compounds were probed with streptavidin-HRP system followed by detecting luminescence signals using a spectrophotometer. […]

NCI-H1299 cells = experiment: WST-1 cell viability assay, NCI-H1299; format: cell-based, human; settings: WST-1, 48 h, concentrations tested up to 20 µM; n = 3–5/group
Source text: as §1

Caco-2 cells = experiment: WST-1 cell viability assay, Caco-2; format: cell-based, human; settings: WST-1, 48 h, concentrations tested up to 20 µM; n = 3–5/group
Source text: as §1

SMILES	effect on ACE2 activity in cultured Caco-2 cells [1]	effect on cell viability, MCF-7 (MCF-7 cells)	total ACE2 protein level, Caco-2 [2]	cell surface expression of ACE2, Caco-2 [3]	Kd [4]	effect on cell viability, NCI-H1299 (NCI-H1299 cells)	effect on cell viability, Caco-2 (Caco-2 cells)
C=CCN(CC(=O)N(CC(=O)N[C@@H](CCCCN)C(=O)N[C@@H](CCSC)C(=O)NCCCC[C@H](NC(=O)[C@H](CCSC)NC(=O)[C@H](CCCCN)NC(=O)CN(C(=O)CN(CC=C)C(=O)CN(Cc1ccc(OC)cc1)C(=O)CN(C(=O)CN(CCOC)C(=O)CNCC(C)C)[C@H](C)c1ccccc1)[C@H](C)c1ccccc1)C(N)=O)[C@H](C)c1ccccc1)C(=O)CN(Cc1ccc(OC)cc1)C(=O)CN(C(=O)CN(CCOC)C(=O)CNCC(C)C)[C@H](C)c1ccccc1 [ACE2P1D1] (I: H-[Nleu][Nme][Nrpe][N(4-MeOBn)Gly][NAllylGly][Nrpe]KMK-NH2 / II: H-[Nleu][Nme][Nrpe][N(4-MeOBn)Gly][NAllylGly][Nrpe]KM; amide I:9-II:C)	had no effects on ACE2 activity	had no effect on the cell viability	total ACE2 protein levels did not change	did not decrease the cell surface expression of ACE2	60 nM	had no effect on the cell viability	had no effect on the cell viability
COCCN(CC(=O)N[C@@H](CCCCN)C(=O)N[C@@H](CCSC)C(=O)NCCCC[C@H](NC(=O)[C@H](CCSC)NC(=O)[C@H](CCCCN)NC(=O)CN(CCOC)C(=O)CN(CC(C)C)C(=O)CN(CC(C)C)C(=O)CN(CCCOC(C)C)C(=O)CN(Cc1ccc(OC)cc1)C(=O)CNCc1ccc(OC)cc1)C(N)=O)C(=O)CN(CC(C)C)C(=O)CN(CC(C)C)C(=O)CN(CCCOC(C)C)C(=O)CN(Cc1ccc(OC)cc1)C(=O)CNCc1ccc(OC)cc1 [ACE2P2D1] (I: H-[N(4-MeOBn)Gly][N(4-MeOBn)Gly][N((CH2)3OiPr)Gly][Nleu][Nleu][Nme]KMK-NH2 / II: H-[N(4-MeOBn)Gly][N(4-MeOBn)Gly][N((CH2)3OiPr)Gly][Nleu][Nleu][Nme]KM; amide I:9-II:C)	had no effects on ACE2 activity	had no effect on the cell viability	total ACE2 protein levels did not change	did not decrease the cell surface expression of ACE2	110 nM	had no effect on the cell viability	had no effect on the cell viability
